Measurements published in paper PMC9681820, “A PDE10A inhibitor CPL500036 is a novel agent modulating striatal function devoid of most neuroleptic side-effects” (Frontiers in Pharmacology, 2022).

Assays:
Test in all cases: SafetyScreen44 radioligand binding
[1] = biological target: T1, alpha 4/beta 2 nicotinic acetylcholine receptor, (neuronal) (Homo sapiens, UniProt P17787+P43681); details: agonist radioligand, read-out: % Inh (% inhibition of control specific binding)
T1 construct: purchased Eurofins Cerep (SafetyScreen44)
Description: (§1) The SafetyScreen44® assay was carried out by Eurofins (Poitiers, France) according to the service-provider’s protocol. CPL500036 (1 µM) was tested against a panel of […] potential off-targets proteins, including G protein-coupled receptors (GPCRs), transporters, ion channels, nuclear receptors kinases and other non-kinase enzymes, by use of a set of the binding assays.
(§2) Binding of CPL500036 was calculated as the percent binding inhibition of a radioactively labeled ligand specific for each target. Enzyme inhibition of CPL500036 was calculated as the percent inhibition of the activity of the control enzyme. “No interaction” was denoted if inhibition ≤ 25% of specific binding of the control. Determination of muscarinic acetylcholine receptor (M2) activity induced by CPL500036 (antagonism and agonism) was undertaken in human recombinant CHO cells by measurement of the intracellular cAMP level according to the service-provider’s protocol. IC50 (concentration causing a half-maximal inhibition of specific binding of the control) or EC50 (concentration causing a half-maximal response of specific binding of the control) and the Hill coefficient were determined by non-linear regression analysis of the competition curves generated with mean replicate values using Hill-equation curve fitting with software developed at Cerep (Celle-Lévescault, France).

dopamine transporter = biological target: T2, dopamine transporter (Homo sapiens, UniProt Q01959); details: read-out: % Inh (% inhibition of control specific binding)
T2 construct: purchased Eurofins Cerep (SafetyScreen44)
Description: as §1, §2

adenosine A2A receptor = biological target: T3, adenosine A2A receptor (Homo sapiens, UniProt P29274); details: agonist radioligand, read-out: % Inh (% inhibition of control specific binding)
T3 construct: purchased Eurofins Cerep (SafetyScreen44)
Description: as §1, §2

[2] = biological target: T4, cannabinoid receptor type 2 (Homo sapiens, UniProt P34972); details: agonist radioligand, read-out: % Inh (% inhibition of control specific binding)
T4 construct: purchased Eurofins Cerep (SafetyScreen44)
Description: as §1, §2

dopamine receptor type 2 = biological target: T5, dopamine receptor type 2 (Homo sapiens, UniProt P14416); details: agonist radioligand, read-out: % Inh (% inhibition of control specific binding)
T5 construct: purchased Eurofins Cerep (SafetyScreen44)
Description: as §1, §2

serotonin receptor 1A = biological target: T6, serotonin receptor 1A (Homo sapiens, UniProt P08908); details: agonist radioligand, read-out: % Inh (% inhibition of control specific binding)
T6 construct: purchased Eurofins Cerep (SafetyScreen44)
Description: as §1, §2

[3] = biological target: T7, alpha-1A adrenergic receptor (Homo sapiens, UniProt P35348); details: read-out: % Inh (% inhibition of control specific binding)
T7 construct: purchased Eurofins Cerep (SafetyScreen44)
Description: as §1, §2

[4] = biological target: T8, muscarinic acetylcholine receptor type 3 (Homo sapiens, UniProt P20309); details: read-out: % Inh (% inhibition of control specific binding)
T8 construct: purchased Eurofins Cerep (SafetyScreen44)
Description: as §1, §2

[5] = biological target: T9, δ-type opioid receptor ẟ2 (Homo sapiens, UniProt P41143); details: agonist radioligand, read-out: % Inh (% inhibition of control specific binding)
T9 construct: purchased Eurofins Cerep (SafetyScreen44)
Description: as §1, §2

androgen receptor = biological target: T10, androgen receptor (Homo sapiens, UniProt P10275, T878A); details: agonist radioligand, read-out: % Inh (% inhibition of control specific binding)
T10 construct: purchased Eurofins Cerep (SafetyScreen44)
Description: as §1, §2

µ -type opioid receptor = biological target: T11, µ -type opioid receptor (Homo sapiens, UniProt P35372); details: agonist radioligand, read-out: % Inh (% inhibition of control specific binding)
T11 construct: purchased Eurofins Cerep (SafetyScreen44)
Description: as §1, §2

κ-type opioid receptor = biological target: T12, κ-type opioid receptor (Rattus norvegicus, UniProt P34975); details: agonist radioligand, read-out: % Inh (% inhibition of control specific binding)
T12 construct: purchased Eurofins Cerep (SafetyScreen44)
Description: as §1, §2

Endothelin receptor = biological target: T13, Endothelin receptor (Homo sapiens, UniProt P25101); details: agonist radioligand, read-out: % Inh (% inhibition of control specific binding)
T13 construct: purchased Eurofins Cerep (SafetyScreen44)
Description: as §1, §2

[6] = biological target: T14, alpha-2A adrenergic receptor (Homo sapiens, UniProt P08913); details: read-out: % Inh (% inhibition of control specific binding)
T14 construct: purchased Eurofins Cerep (SafetyScreen44)
Description: as §1, §2

glucocorticoid receptor = biological target: T15, glucocorticoid receptor (Homo sapiens, UniProt P04150); details: agonist radioligand, read-out: % Inh (% inhibition of control specific binding)
T15 construct: purchased Eurofins Cerep (SafetyScreen44)
Description: as §1, §2

[7] = biological target: T16, beta-2 adrenergic receptor (Homo sapiens, UniProt P07550); details: agonist radioligand, read-out: % Inh (% inhibition of control specific binding)
T16 construct: purchased Eurofins Cerep (SafetyScreen44)
Description: as §1, §2

serotonin receptor 2B = biological target: T17, serotonin receptor 2B (Homo sapiens, UniProt P41595); details: agonist radioligand, read-out: % Inh (% inhibition of control specific binding)
T17 construct: purchased Eurofins Cerep (SafetyScreen44)
Description: as §1, §2

Monoamine oxidase A = biological target: T18, Monoamine oxidase A (Rattus norvegicus, UniProt P21396); details: read-out: % Inh (% inhibition of control specific binding)
T18 construct: purchased Eurofins Cerep (SafetyScreen44)
Description: as §1, §2

[8] = biological target: T19, norepinephrine transporter (Homo sapiens, UniProt P23975); details: read-out: % Inh (% inhibition of control specific binding)
T19 construct: purchased Eurofins Cerep (SafetyScreen44)
Description: as §1, §2

[9] = biological target: T20, histamine receptor type 1 (Homo sapiens, UniProt P35367); details: read-out: % Inh (% inhibition of control specific binding)
T20 construct: purchased Eurofins Cerep (SafetyScreen44)
Description: as §1, §2

[10] = biological target: T21, beta-1 adrenergic receptor (Homo sapiens, UniProt P08588); details: agonist radioligand, read-out: % Inh (% inhibition of control specific binding)
T21 construct: purchased Eurofins Cerep (SafetyScreen44)
Description: as §1, §2

dopamine receptor type 1 = biological target: T22, dopamine receptor type 1 (Homo sapiens, UniProt P21728); details: read-out: % Inh (% inhibition of control specific binding)
T22 construct: purchased Eurofins Cerep (SafetyScreen44)
Description: as §1, §2

[11] = biological target: T23, histamine receptor type 2 (Homo sapiens, UniProt P25021); details: read-out: % Inh (% inhibition of control specific binding)
T23 construct: purchased Eurofins Cerep (SafetyScreen44)
Description: as §1, §2

serotonin receptor 1B = biological target: T24, serotonin receptor 1B (Rattus norvegicus, UniProt P28564); details: read-out: % Inh (% inhibition of control specific binding)
T24 construct: purchased Eurofins Cerep (SafetyScreen44)
Description: as §1, §2

[12] = biological target: T25, cholecystokinin A receptor (Homo sapiens, UniProt P32238); details: agonist radioligand, read-out: % Inh (% inhibition of control specific binding)
T25 construct: purchased Eurofins Cerep (SafetyScreen44)
Description: as §1, §2

serotonin receptor 3 = biological target: T26, serotonin receptor 3 (Homo sapiens, UniProt P46098); details: read-out: % Inh (% inhibition of control specific binding)
T26 construct: purchased Eurofins Cerep (SafetyScreen44)
Description: as §1, §2

vasopressin receptor = biological target: T27, vasopressin receptor (Homo sapiens, UniProt P37288); details: agonist radioligand, read-out: % Inh (% inhibition of control specific binding)
T27 construct: purchased Eurofins Cerep (SafetyScreen44)
Description: as §1, §2

5-HT transporter = biological target: T28, 5-HT transporter (Homo sapiens, UniProt P31645); details: read-out: % Inh (% inhibition of control specific binding)
T28 construct: purchased Eurofins Cerep (SafetyScreen44)
Description: as §1, §2

[13] = biological target: T29, muscarinic acetylcholine receptor type 1 (Homo sapiens, UniProt P11229); details: read-out: % Inh (% inhibition of control specific binding)
T29 construct: purchased Eurofins Cerep (SafetyScreen44)
Description: as §1, §2

[14] = biological target: T30, cannabinoid receptor type 1 (Homo sapiens, UniProt P21554); details: agonist radioligand, read-out: % Inh (% inhibition of control specific binding)
T30 construct: purchased Eurofins Cerep (SafetyScreen44)
Description: as §1, §2

[15] = biological target: T31, potassium voltage-gated channel subfamily H member 2 (hERG) (Homo sapiens, UniProt Q12809); details: read-out: % Inh (% inhibition of control specific binding)
T31 construct: purchased Eurofins Cerep (SafetyScreen44)
Description: as §1, §2

T16 sequence (P07550 whole entry): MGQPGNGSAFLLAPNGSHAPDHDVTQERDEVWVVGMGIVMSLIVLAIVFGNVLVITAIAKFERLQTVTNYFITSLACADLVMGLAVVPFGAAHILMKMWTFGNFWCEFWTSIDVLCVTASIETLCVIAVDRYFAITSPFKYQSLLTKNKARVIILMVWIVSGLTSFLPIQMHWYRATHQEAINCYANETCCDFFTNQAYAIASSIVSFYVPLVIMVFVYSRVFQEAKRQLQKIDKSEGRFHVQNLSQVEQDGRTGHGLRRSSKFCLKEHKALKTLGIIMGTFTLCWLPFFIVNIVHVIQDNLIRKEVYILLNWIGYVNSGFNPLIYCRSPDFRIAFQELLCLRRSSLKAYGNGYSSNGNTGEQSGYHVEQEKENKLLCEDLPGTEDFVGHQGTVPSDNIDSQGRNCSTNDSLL
T26 sequence (P46098 24-478): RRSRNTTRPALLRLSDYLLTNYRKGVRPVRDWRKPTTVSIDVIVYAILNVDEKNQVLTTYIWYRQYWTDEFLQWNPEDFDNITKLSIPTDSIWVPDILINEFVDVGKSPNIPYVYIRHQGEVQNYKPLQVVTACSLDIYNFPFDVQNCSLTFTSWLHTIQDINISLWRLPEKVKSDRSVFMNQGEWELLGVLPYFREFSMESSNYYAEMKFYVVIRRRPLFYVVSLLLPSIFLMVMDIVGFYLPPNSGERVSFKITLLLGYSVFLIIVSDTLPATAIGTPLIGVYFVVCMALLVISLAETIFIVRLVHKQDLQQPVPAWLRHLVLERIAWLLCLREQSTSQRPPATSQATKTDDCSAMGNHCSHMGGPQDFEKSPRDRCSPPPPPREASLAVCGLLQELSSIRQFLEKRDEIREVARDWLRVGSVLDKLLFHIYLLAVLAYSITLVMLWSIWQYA
T12 sequence (P34975 whole entry): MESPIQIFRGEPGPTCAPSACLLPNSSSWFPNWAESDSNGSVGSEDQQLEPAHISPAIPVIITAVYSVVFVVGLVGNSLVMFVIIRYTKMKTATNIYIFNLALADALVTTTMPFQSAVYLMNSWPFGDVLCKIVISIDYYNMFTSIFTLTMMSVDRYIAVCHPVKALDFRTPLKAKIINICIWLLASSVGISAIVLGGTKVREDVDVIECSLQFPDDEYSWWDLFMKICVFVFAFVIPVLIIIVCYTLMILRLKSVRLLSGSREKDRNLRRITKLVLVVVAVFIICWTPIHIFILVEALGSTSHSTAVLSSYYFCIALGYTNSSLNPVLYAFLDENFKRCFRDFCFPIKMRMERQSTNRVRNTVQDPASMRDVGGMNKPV
T31 sequence (Q12809 whole entry): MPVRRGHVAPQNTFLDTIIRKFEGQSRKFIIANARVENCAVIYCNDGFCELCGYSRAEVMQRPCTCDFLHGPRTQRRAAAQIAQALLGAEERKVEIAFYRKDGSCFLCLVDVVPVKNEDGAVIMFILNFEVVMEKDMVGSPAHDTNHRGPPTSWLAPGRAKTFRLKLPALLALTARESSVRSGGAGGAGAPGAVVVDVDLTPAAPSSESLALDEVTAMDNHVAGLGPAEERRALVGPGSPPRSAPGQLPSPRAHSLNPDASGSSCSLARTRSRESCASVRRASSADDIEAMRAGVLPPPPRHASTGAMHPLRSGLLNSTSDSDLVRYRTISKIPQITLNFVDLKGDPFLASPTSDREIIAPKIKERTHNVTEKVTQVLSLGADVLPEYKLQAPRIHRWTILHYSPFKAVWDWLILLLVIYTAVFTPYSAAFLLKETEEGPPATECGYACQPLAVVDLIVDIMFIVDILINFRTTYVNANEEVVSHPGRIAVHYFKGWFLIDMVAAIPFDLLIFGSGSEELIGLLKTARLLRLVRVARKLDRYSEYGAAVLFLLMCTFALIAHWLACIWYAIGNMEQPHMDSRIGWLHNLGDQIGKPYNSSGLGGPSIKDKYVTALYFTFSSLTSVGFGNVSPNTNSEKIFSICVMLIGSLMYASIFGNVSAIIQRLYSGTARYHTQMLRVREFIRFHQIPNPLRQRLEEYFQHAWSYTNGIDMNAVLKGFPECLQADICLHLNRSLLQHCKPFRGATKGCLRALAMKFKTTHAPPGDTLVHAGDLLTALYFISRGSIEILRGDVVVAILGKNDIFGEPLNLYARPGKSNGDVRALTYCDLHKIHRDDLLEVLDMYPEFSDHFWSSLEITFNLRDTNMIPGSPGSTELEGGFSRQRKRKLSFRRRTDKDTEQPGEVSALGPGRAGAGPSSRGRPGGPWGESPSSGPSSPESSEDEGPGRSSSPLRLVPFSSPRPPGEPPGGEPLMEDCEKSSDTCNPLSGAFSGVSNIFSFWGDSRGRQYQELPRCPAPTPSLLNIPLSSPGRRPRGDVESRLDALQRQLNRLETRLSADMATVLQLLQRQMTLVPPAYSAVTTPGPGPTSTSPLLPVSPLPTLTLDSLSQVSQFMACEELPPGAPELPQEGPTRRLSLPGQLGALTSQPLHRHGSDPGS
T21 sequence (P08588 whole entry): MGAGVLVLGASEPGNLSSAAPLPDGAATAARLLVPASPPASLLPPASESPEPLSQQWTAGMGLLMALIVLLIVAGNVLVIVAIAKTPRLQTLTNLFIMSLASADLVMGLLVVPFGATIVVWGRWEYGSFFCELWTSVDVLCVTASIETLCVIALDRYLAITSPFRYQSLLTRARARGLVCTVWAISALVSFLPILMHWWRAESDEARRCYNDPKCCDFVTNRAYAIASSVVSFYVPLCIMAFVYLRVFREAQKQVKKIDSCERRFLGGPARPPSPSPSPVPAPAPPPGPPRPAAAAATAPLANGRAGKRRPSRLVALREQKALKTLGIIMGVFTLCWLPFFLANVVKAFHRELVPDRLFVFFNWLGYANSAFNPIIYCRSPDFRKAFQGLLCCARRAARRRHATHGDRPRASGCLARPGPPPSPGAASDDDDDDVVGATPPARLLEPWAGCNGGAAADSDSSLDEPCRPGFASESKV
T9 sequence (P41143 whole entry): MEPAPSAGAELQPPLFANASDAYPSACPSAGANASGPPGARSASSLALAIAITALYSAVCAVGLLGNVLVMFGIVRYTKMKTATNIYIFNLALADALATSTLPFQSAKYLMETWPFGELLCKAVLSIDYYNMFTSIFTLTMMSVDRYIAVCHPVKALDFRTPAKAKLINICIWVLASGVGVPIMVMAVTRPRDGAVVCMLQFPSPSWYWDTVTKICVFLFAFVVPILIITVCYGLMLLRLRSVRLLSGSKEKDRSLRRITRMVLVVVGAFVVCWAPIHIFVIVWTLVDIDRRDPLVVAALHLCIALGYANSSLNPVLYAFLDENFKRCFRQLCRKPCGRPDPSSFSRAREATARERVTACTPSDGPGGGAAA
T22 sequence (P21728 whole entry): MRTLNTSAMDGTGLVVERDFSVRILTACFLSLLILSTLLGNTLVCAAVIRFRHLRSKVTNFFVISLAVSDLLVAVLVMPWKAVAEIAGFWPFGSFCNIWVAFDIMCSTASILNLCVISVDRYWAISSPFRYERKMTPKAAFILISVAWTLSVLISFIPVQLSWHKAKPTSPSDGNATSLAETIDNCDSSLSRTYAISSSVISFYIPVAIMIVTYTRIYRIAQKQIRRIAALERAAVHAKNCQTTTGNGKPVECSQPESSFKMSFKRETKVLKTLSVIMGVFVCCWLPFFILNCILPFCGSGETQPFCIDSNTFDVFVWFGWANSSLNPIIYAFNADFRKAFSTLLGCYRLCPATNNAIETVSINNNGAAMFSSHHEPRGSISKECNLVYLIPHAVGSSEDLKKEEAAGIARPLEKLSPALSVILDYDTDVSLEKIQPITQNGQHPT
T3 sequence (P29274 whole entry): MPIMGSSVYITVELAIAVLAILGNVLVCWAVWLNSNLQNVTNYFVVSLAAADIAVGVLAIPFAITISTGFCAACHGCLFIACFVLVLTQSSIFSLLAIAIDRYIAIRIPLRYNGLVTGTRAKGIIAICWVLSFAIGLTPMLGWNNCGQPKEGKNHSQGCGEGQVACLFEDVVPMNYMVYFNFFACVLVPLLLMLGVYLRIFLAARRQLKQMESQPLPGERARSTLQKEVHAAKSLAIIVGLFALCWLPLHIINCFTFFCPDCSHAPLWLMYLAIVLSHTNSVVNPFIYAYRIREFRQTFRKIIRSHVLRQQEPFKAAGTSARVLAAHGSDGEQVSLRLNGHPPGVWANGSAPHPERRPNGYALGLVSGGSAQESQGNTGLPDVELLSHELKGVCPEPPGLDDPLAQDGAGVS
T7 sequence (P35348 whole entry): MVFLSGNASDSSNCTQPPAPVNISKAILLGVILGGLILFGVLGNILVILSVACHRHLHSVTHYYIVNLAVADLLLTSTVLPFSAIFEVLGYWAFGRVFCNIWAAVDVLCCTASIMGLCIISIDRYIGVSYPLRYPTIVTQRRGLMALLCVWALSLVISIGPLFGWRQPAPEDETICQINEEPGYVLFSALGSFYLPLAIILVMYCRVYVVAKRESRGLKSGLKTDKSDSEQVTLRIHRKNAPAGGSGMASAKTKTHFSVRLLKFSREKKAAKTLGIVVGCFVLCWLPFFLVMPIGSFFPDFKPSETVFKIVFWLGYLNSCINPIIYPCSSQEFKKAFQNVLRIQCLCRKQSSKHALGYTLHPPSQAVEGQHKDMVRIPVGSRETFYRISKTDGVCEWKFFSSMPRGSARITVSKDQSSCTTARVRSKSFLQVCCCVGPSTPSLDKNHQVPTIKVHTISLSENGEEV
T13 sequence (P25101 21-427): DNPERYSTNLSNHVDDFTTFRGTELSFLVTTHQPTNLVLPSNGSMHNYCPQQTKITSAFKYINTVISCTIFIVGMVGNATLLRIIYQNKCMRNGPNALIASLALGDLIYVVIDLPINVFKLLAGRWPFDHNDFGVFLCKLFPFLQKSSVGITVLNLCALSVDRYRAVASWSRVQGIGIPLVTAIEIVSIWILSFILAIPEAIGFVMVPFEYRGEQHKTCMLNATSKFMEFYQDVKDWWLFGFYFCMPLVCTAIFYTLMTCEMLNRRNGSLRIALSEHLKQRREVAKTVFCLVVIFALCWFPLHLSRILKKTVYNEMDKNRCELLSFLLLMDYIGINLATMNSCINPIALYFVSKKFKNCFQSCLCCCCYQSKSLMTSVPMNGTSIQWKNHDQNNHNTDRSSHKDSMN

SMILES: Cc1ncc(C)n2nc(-c3ccn4cc(-c5ccccc5)nc4n3)nc12 [CPL500036, 7-[5,8-Dimethyl-(1,2,4)triazolo (1,5-a)pyrazin-2-yl]-2-phenylimidazo (1,2-a) pyrimidine]
- inhibition at 1 µM [1]: -6.1%
- inhibition at 1 µM (dopamine transporter): -6.9%
- inhibition at 1 µM (adenosine A2A receptor): -8.1%
- inhibition at 1 µM [2]: -14.6%
- inhibition at 1 µM (dopamine receptor type 2): -14.4%
- inhibition at 1 µM (serotonin receptor 1A): 5.4%
- inhibition at 1 µM [3]: 1.8%
- inhibition at 1 µM [4]: 0.7%
- inhibition at 1 µM [5]: 6.9%
- inhibition at 1 µM (androgen receptor): 5.3%
- inhibition at 1 µM (µ -type opioid receptor): -1.1%
- inhibition at 1 µM (κ-type opioid receptor): 7.7%
- inhibition at 1 µM (Endothelin receptor): -16.8%
- inhibition at 1 µM [6]: 0.4%
- inhibition at 1 µM (glucocorticoid receptor): -3.2%
- inhibition at 1 µM [7]: 8.2%
- inhibition at 1 µM (serotonin receptor 2B): 10.6%
- inhibition at 1 µM (Monoamine oxidase A): 1%
- inhibition at 1 µM [8]: -14.5%
- inhibition at 1 µM [9]: -14.6%
- inhibition at 1 µM [10]: 1.1%
- inhibition at 1 µM (dopamine receptor type 1): -8.2%
- inhibition at 1 µM [11]: 1.8%
- inhibition at 1 µM (serotonin receptor 1B): -7.3%
- inhibition at 1 µM [12]: -8.2%
- inhibition at 1 µM (serotonin receptor 3): -5.7%
- inhibition at 1 µM (vasopressin receptor): -0.8%
- inhibition at 1 µM (5-HT transporter): -9.5%
- inhibition at 1 µM [13]: -19.7%
- inhibition at 1 µM [14]: 8.8%
- inhibition at 1 µM [15]: -19.6%
